Experimental findings from patent US20240299385A1 (ReWind Therapeutics NV, priority 2021, published 2024) are described below.

In the test the target is T1, human GPR17 receptor (Homo sapiens, UniProt Q13304).
T1 construct: host or cells: HEK-293
T1 sequence (Q13304 whole entry): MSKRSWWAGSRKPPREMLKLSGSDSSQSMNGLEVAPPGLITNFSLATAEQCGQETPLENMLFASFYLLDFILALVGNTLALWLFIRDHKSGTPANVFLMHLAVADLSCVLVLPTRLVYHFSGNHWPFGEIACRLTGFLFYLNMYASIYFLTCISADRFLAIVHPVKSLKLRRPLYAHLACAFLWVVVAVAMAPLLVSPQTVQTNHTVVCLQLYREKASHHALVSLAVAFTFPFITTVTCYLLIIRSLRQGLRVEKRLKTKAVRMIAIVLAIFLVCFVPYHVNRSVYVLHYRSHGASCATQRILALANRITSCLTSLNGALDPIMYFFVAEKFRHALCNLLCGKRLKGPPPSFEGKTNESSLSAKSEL
Description: Calcium mobilization functional assay (Fluo-8, FLIPR TETRA) in HEK-293 hGPR17 (Gα-q assay). The following applies: antagonism of MDL29,951 (~EC80) induced Ca2+ signal; cell line (HEK-293 hGPR17 or HEK-293 Suchi5 hGPR17) not given. The class given is cell-based. The method, boiled down: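 Fluo-8-loaded HEK-293 hGPR17 cells (60 min dye loading, room temperature) were preincubated with compound for twenty minutes, then challenged with agonist MDL29,951 at ~EC80, 500 nM. Intracellular calcium release via Gα-q was recorded as FLIPR fluorescence for a further 2 minutes; compounds tested in duplicate.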
Consider `N#Cc1cccc(-c2cc(S(=O)(=O)Nc3cc(F)c(C(F)(F)F)cc3F)c[nH]2)c1F` [Cpd 564, 5-(3-cyano-2-fluorophenyl)-N-[2,5-difluoro-4-(trifluoromethyl)phenyl]-1H-pyrrole-3-sulfonamide], for which the IC50 fell in the range of 500 to 5000 nM.

`O=S(=O)(Nc1cc(F)c(C(F)(F)F)cc1F)c1c[nH]c(-c2cccn3ccnc23)c1` [Cpd 565, N-[2,5-difluoro-4-(trifluoromethyl)phenyl]-5-imidazo[1,2-a]pyridin-8-yl-1H-pyrrole-3-sulfonamide]: the half-maximal inhibitory concentration (IC50) was in the range of 500 to 5000 nM.

On to `O=S(=O)(Nc1cc(F)c(C(F)(F)F)cc1F)c1c[nH]c(-c2cccc3ccnn23)c1` [Cpd 566, N-[2,5-difluoro-4-(trifluoromethyl)phenyl]-5-pyrazolo[1,5-a]pyridin-7-yl-1H-pyrrole-3-sulfonamide], for which the IC50 was 500 to 5000 nM.

Consider `O=S(=O)(Nc1cc(F)c(C(F)(F)F)cc1F)c1c[nH]c(-c2ccc3cccnn23)c1` [Cpd 567, N-[2,5-difluoro-4-(trifluoromethyl)phenyl]-5-pyrrolo[1,2-b]pyridazin-7-yl-1H-pyrrole-3-sulfonamide], for which the IC50 was less than 500 nM.

Consider `O=S(=O)(Nc1cc(F)c(C(F)(F)F)cc1F)c1c[nH]cc1Cc1cccc(Cl)c1` [Cpd 568, 4-[(3-chlorophenyl)methyl]-N-[2,5-difluoro-4-(trifluoromethyl)phenyl]-1H-pyrrole-3-sulfonamide], for which the concentration for half-maximal inhibition (IC50) was in the range of 500 to 5000 nM.

`N#Cc1cc(F)c(NS(=O)(=O)c2c[nH]cc2Cc2cccc(Cl)c2)cc1F` [Cpd 569, 4-[(3-chlorophenyl)methyl]-N-(4-cyano-2,5-difluorophenyl)-1H-pyrrole-3-sulfonamide]: the IC50 is less than 500 nM.

Take `N#Cc1ccc(NS(=O)(=O)c2c[nH]c(-c3ccc(F)s3)c2)c(F)c1` [Cpd 570, N-(4-cyano-2-fluorophenyl)-5-(5-fluorothiophen-2-yl)-1H-pyrrole-3-sulfonamide]: the IC50 was less than 500 nM.

Consider `CC1(C)CC(c2cc(S(=O)(=O)Nc3cc(F)c(C(F)(F)F)cc3F)c[nH]2)C1` [Cpd 571, N-[2,5-difluoro-4-(trifluoromethyl)phenyl]-5-(3,3-dimethylcyclobutyl)-1H-pyrrole-3-sulfonamide], for which the 50% inhibitory concentration (IC50) lay in the range of 5000 to 50000 nM.

In the case of `N#Cc1cc(F)c(NS(=O)(=O)c2c[nH]c(-c3cccc4ccsc34)c2)cc1F` [Cpd 572, 5-(1-benzothiophen-7-yl)-N-(4-cyano-2,5-difluorophenyl)-1H-pyrrole-3-sulfonamide], the IC50 is less than 500 nM.

As for `O=S(=O)(Nc1cc(F)c(C(F)(F)F)cc1F)c1c[nH]c(-c2ncccc2CF)c1` [Cpd 573, N-[2,5-difluoro-4-(trifluoromethyl)phenyl]-5-[3-(fluoromethyl)pyridin-2-yl]-1H-pyrrole-3-sulfonamide], the IC50 lay in the range of 500 to 5000 nM.

Regarding `N#Cc1cccc(Cc2c[nH]cc2S(=O)(=O)Nc2cc(F)c(C(F)(F)F)cc2F)c1` [Cpd 574, 4-[(3-cyanophenyl)methyl]-N-[2,5-difluoro-4-(trifluoromethyl)phenyl]-1H-pyrrole-3-sulfonamide], the IC50 fell in the range of 500 to 5000 nM.

For the compound `N#Cc1cc(F)c(NS(=O)(=O)c2c[nH]c(-c3cccc(Cl)n3)c2)cc1F` [Cpd 575, 5-(6-chloropyridin-2-yl)-N-(4-cyano-2,5-difluorophenyl)-1H-pyrrole-3-sulfonamide], the IC50 is less than 500 nM.

Turning to `N#CCOc1cc(F)c(NS(=O)(=O)c2c[nH]c(-c3ccccc3)c2)cc1Cl` [Cpd 576, N-[5-chloro-4-(cyanomethoxy)-2-fluorophenyl]-5-phenyl-1H-pyrrole-3-sulfonamide], the half-inhibitory concentration (IC50) is 500 to 5000 nM.

For `Cc1cc(F)cnc1-c1cc(S(=O)(=O)Nc2ccc(C#N)cc2F)c[nH]1` [Cpd 577, N-(4-cyano-2-fluorophenyl)-5-(5-fluoro-3-methylpyridin-2-yl)-1H-pyrrole-3-sulfonamide], the half-inhibitory concentration (IC50) was less than 500 nM.

Regarding `N#CCOc1cc(F)c(NS(=O)(=O)c2c[nH]c(C3CCC3)c2)cc1F` [Cpd 578, N-[4-(cyanomethoxy)-2,5-difluorophenyl]-5-cyclobutyl-1H-pyrrole-3-sulfonamide], the IC50 is less than 500 nM.

Turning to `O=S(=O)(Nc1cc(F)c(C(F)(F)F)cc1F)c1c[nH]c(-c2ncccc2C(F)F)c1` [Cpd 580, 5-[3-(difluoromethyl)pyridin-2-yl]-N-[2,5-difluoro-4-(trifluoromethyl)phenyl]-1H-pyrrole-3-sulfonamide], the 50% inhibitory concentration (IC50) is 500 to 5000 nM.

For the compound `N#Cc1ccc(NS(=O)(=O)c2c[nH]c(-c3ncccc3C(F)F)c2)c(F)c1` [Cpd 581, N-(4-cyano-2-fluorophenyl)-5-[3-(difluoromethyl)pyridin-2-yl]-1H-pyrrole-3-sulfonamide], the IC50 was in the range of 5000 to 50000 nM.

As to `Cc1noc(C)c1-c1cc(S(=O)(=O)Nc2cc(F)c(C(F)(F)F)cc2F)c[nH]1` [Cpd 582, N-[2,5-difluoro-4-(trifluoromethyl)phenyl]-5-(3,5-dimethyl-1,2-oxazol-4-yl)-1H-pyrrole-3-sulfonamide], the IC50 was 500 to 5000 nM.

In the case of `N#Cc1cc(F)c(NS(=O)(=O)c2c[nH]cc2Cc2ccc(F)cc2)cc1F` [Cpd 584, N-(4-cyano-2,5-difluorophenyl)-4-[(4-fluorophenyl)methyl]-1H-pyrrole-3-sulfonamide], the half-maximal inhibitory concentration (IC50) was less than 500 nM.

Consider `N#Cc1cc(F)c(NS(=O)(=O)c2c[nH]cc2Cc2cccc(F)c2)cc1F` [Cpd 585, N-(4-cyano-2,5-difluorophenyl)-4-[(3-fluorophenyl)methyl]-1H-pyrrole-3-sulfonamide], for which the IC50 was less than 500 nM.

As for `N#Cc1cc(F)c(NS(=O)(=O)c2c[nH]cc2Cc2cccc(C3CC3)c2)cc1F` [Cpd 586, N-(4-cyano-2,5-difluorophenyl)-4-[(3-cyclopropylphenyl)methyl]-1H-pyrrole-3-sulfonamide], the IC50 lay within 500 to 5000 nM.

For `N#Cc1ccc(NS(=O)(=O)c2c[nH]c(-c3ccccc3OC(F)(F)F)c2)c(F)c1` [Cpd 587, N-(4-cyano-2-fluorophenyl)-5-[2-(trifluoromethoxy)phenyl]-1H-pyrrole-3-sulfonamide], the IC50 lay within 500 to 5000 nM.

Turning to `N#Cc1cc(F)c(NS(=O)(=O)c2c[nH]c(-c3ccccc3OC(F)(F)F)c2)cc1F` [Cpd 588, N-(4-cyano-2,5-difluorophenyl)-5-[2-(trifluoromethoxy)phenyl]-1H-pyrrole-3-sulfonamide], the IC50 was less than 500 nM.

As for `O=S(=O)(Nc1cc(F)c(C(F)(F)F)cc1F)c1c[nH]c(-c2ccccc2OC(F)(F)F)c1` [Cpd 589, N-[2,5-difluoro-4-(trifluoromethyl)phenyl]-5-[2-(trifluoromethoxy)phenyl]-1H-pyrrole-3-sulfonamide], the 50% inhibitory concentration (IC50) lay in the range of 500 to 5000 nM.

Take `O=S(=O)(Nc1cc(F)c(C(F)(F)F)cc1F)c1c[nH]cc1Cc1cccc(C2CC2)c1` [Cpd 590, 4-[(3-cyclopropylphenyl)methyl]-N-[2,5-difluoro-4-(trifluoromethyl)phenyl]-1H-pyrrole-3-sulfonamide]: the IC50 was 5000 to 50000 nM.

With `O=S(=O)(Nc1cnsc1)c1c[nH]c(-c2ccccc2)c1` [Cpd 591, 5-phenyl-N-(1,2-thiazol-4-yl)-1H-pyrrole-3-sulfonamide], the IC50 was in the range of 5000 to 50000 nM.

Consider `N#Cc1ccc(NS(=O)(=O)c2c[nH]c(-c3ncccc3CF)c2)c(F)c1` [Cpd 592, N-(4-cyano-2-fluorophenyl)-5-[3-(fluoromethyl)pyridin-2-yl]-1H-pyrrole-3-sulfonamide], for which the half-maximal inhibitory concentration (IC50) was 500 to 5000 nM.

In the case of `O=S(=O)(Nc1cc(F)cs1)c1c[nH]c(-c2ccccc2)c1` [Cpd 593, N-(4-fluorothiophene-2-yl)-5-phenyl-1H-pyrrole-3-sulfonamide], the IC50 was in the range of 500 to 5000 nM.

On to `N#Cc1ccc(NS(=O)(=O)c2c[nH]c(-c3cscc3F)c2)c(F)c1` [Cpd 594, N-(4-cyano-2-fluorophenyl)-5-(4-fluorothiophene-3-yl)-1H-pyrrole-3-sulfonamide], for which the IC50 was less than 500 nM.

Turning to `Cc1nc(-c2cc(S(=O)(=O)Nc3cc(F)c(C(F)(F)F)cc3F)c[nH]2)cs1` [Cpd 595, N-[2,5-difluoro-4-(trifluoromethyl)phenyl]-5-(2-methyl-1,3-thiazol-4-yl)-1H-pyrrole-3-sulfonamide], the IC50 lay within 500 to 5000 nM.

For `N#Cc1cc(F)c(NS(=O)(=O)c2c[nH]c(-c3ccc(F)c(Cl)c3)c2)cc1F` [Cpd 596, 5-(3-chloro-4-fluorophenyl)-N-(4-cyano-2,5-difluorophenyl)-1H-pyrrole-3-sulfonamide], the half-inhibitory concentration (IC50) was 500 to 5000 nM.

Consider `O=S(=O)(Nc1cc(F)c(C(F)(F)F)cc1F)c1c[nH]c(-c2cncs2)c1` [Cpd 597, N-[2,5-difluoro-4-(trifluoromethyl)phenyl]-5-(1,3-thiazol-5-yl)-1H-pyrrole-3-sulfonamide], for which the IC50 is less than 500 nM.

For the compound `N#Cc1cc(F)c(NS(=O)(=O)c2c[nH]c(-c3nccs3)c2)cc1F` [Cpd 598, N-(4-cyano-2,5-difluorophenyl)-5-(1,3-thiazol-2-yl)-1H-pyrrole-3-sulfonamide], the IC50 was less than 500 nM.

For `Cc1csc(-c2cc(S(=O)(=O)Nc3cc(F)c(C(F)(F)F)cc3F)c[nH]2)n1` [Cpd 599, N-[2,5-difluoro-4-(trifluoromethyl)phenyl]-5-(4-methyl-1,3-thiazol-2-yl)-1H-pyrrole-3-sulfonamide], the concentration for half-maximal inhibition (IC50) is less than 500 nM.

Take `Cn1cccc(-c2cc(S(=O)(=O)Nc3ccc(C#N)cc3F)c[nH]2)c1=O` [Cpd 600, N-(4-cyano-2-fluorophenyl)-5-(1-methyl-2-oxopyridin-3-yl)-1H-pyrrole-3-sulfonamide]: the IC50 is 5000 to 50000 nM.

As to `N#Cc1cc(F)c(NS(=O)(=O)c2c[nH]c(-c3ccccc3)c2)s1` [Cpd 601, N-(5-cyano-3-fluorothiophen-2-yl)-5-phenyl-1H-pyrrole-3-sulfonamide], the IC50 is 500 to 5000 nM.

On to `N#Cc1ccc(NS(=O)(=O)c2c[nH]c(-c3sccc3F)c2)c(F)c1` [Cpd 602, N-(4-cyano-2-fluorophenyl)-5-(3-fluorothiophen-2-yl)-1H-pyrrole-3-sulfonamide], for which the half-inhibitory concentration (IC50) is less than 500 nM.

Broadly, the IC50 is the concentration needed to halve the response being measured.
